Test results from PubChem BioAssay AID1963870 (Molecular Pharmacology Branch, DTP, NCI, 2024).
Values joined by “and” are separate entries in the source; they are usually repeats but may differ in a detail not shown here. Identical values can stand only once. Blank lines part the entries; values can stand above or below the compound they belong to.

Tested on: 292921-168-R-J2-PDC KRAS tumor spheroid viability
Experiment: Anticancer human tumor 292921-168-R-J2-PDC patient-derived pancreatic carcinoma cell line growth inhibition [KRAS2]
Conditions: spheroids with HUVEC and MSC; for viability, T/C: stronger effect = lower value
Description: Multicellular complex tumor spheroid response to RAS pathway inhibitors in combination with a targeted agents in patient-derived cell lines with oncogenic KRAS variants from multiple cancer types
A high-throughput screen of multi-cell type tumor spheroids was designed to identify active combinations of targeted small molecules and KRAS pathway inhibitors. Complex spheroids include a stromal component modeled by human endothelial cells (HUVEC) and fibroblasts modeled by human mesenchymal stem cells (MSCs). The concentration ranges selected for each drug and investigational agent were based upon clinically achievable concentrations if the clinical Cmax of the agent was known.
Compounds. The drugs and investigational agents: BI-3406 (NSC825286), BAY-293 (NSC824723), batoprotafib (TNO155; NSC825523), sotorasib (AMG 510; NSC818433), MRTX1257 (NSC819558), elimusertib (BAY 1895344; NSC800525), molibresib (GSK525762; NSC774829), temuterkib (LY3214996; NSC803410), venetoclax (NSC766270), alisertib (NSC759677), olaparib (NSC753686), talazoparib (NSC767125), erdafitinib (NSC781556), ipatasertib (NSC767898), cabozantinib (NSC761068), nintedanib (NSC756659), abemaciclib (NSC768073), docetaxel (NSC628503), trametinib (NSC758246), and sapanisertib (NSC764658) were obtained from the National Cancer Institute (NCI) Developmental Therapeutics Program Chemical Repository. The FDA-approved anticancer drug set is available from the Developmental Therapeutics Program. […] The stock solutions were prepared in dimethyl sulfoxide (DMSO, Sigma-Aldrich, St. Louis, MO, cat. D2650) at 800-fold the tested concentration and stored at -70 degrees C prior to their use. All drugs and investigational agents were tested over a range starting from a high concentration at or near the clinical Cmax and decreasing in half-log increments. If the clinical Cmax for an agent had not been determined, the highest concentration tested was 10 microM.
Cell Culture. All cells were maintained in an incubator at 37 degrees C and 5% CO2 with 95% humidity. The PDC lines were cultured according to standard operating procedures established by the NCI PDMR (https://pdmr.cancer.gov/sops/default.htm). Briefly, all PDCs were thawed and cultured in Matrigel-coated flasks prepared with a working solution of 1X Ham's F-12 nutrient mix, without supplementation (Invitrogen, Waltham, MA, cat. 11765054), 100 U/mL penicillin-streptomycin (Invitrogen, cat. 15140122), and 2.5% Matrigel (Corning Inc., Corning, NY, cat. 354248) for the first three passages. All PDCs were cultured in complete DMEM/F-12 media containing advanced DMEM/F-12 (Invitrogen, cat. 12634028), 4.9% defined fetal bovine serum, heat inactivated (HyClone Laboratories Inc., Logan, UT, cat. SH30070.03HI), 389 ng/mL hydrocortisone (Sigma-Aldrich, cat. H4001), 9.7 ng/mL human EGF recombinant protein (Invitrogen, cat. PHG0313), 23.4 microg/mL adenine (Sigma-Aldrich, cat. A2786), 97.3 U/mL penicillin-streptomycin (Invitrogen, cat. 15140122), 1.9 mM L-glutamine (Invitrogen, cat. 25030081), and 9.7 microM Y-27632 dihydrochloride (Tocris Bioscience, Bristol, United Kingdom, cat. 1254). The PDCs were cultured in complete DMEM/F12 media without 9.7 microM Y-27632 dihydrochloride for at least two passages prior to the screen. The established cell line HOP-62 was cultured in RPMI 1640 medium, HEPES (Invitrogen, cat. 22400105) with 10% defined fetal bovine serum (HyClone Laboratories Inc., cat. SH30070.03) and 2 mM L-glutamine (Invitrogen, cat. 25030081). The pooled donor HUVEC were cultured in endothelial cell growth medium 2 (PromoCell, Heidelberg, Germany, cat. C-22011) and the hMSC were cultured in mesenchymal stem cell growth medium 2 (PromoCell, cat. C-28009). For all experiments, HUVEC and hMSC were used at passages </=5, while the malignant cell lines were used at passages </=15. […]

[1] = curve of first compound, second compound 0.1 µM
[2] = curve of first compound, second compound 0.316 µM
[3] = curve of first compound, second compound 1 µM
[4] = curve of first compound, second compound 3.16 µM
[5] = curve of first compound, second compound 10 µM
[6] = second compound 0.1 µM, first compound 0.0316 µM
[7] = second compound 0.1 µM, first compound 0.1 µM
[8] = second compound 0.1 µM, first compound 0.316 µM
[9] = second compound 0.1 µM, first compound 1 µM
[10] = second compound 0.1 µM, first compound 3.16 µM
[11] = second compound 0.1 µM, first compound 10 µM
[12] = second compound 0.316 µM, first compound 0.0316 µM
[13] = second compound 0.316 µM, first compound 0.1 µM
[14] = second compound 0.316 µM, first compound 0.316 µM
[15] = second compound 0.316 µM, first compound 1 µM
[16] = second compound 0.316 µM, first compound 3.16 µM
[17] = second compound 0.316 µM, first compound 10 µM
[18] = second compound 1 µM, first compound 0.0316 µM
[19] = second compound 1 µM, first compound 0.1 µM
[20] = second compound 1 µM, first compound 0.316 µM
[21] = second compound 1 µM, first compound 1 µM
[22] = second compound 1 µM, first compound 3.16 µM
[23] = second compound 1 µM, first compound 10 µM
[24] = second compound 3.16 µM, first compound 0.0316 µM
[25] = second compound 3.16 µM, first compound 0.1 µM
[26] = second compound 3.16 µM, first compound 0.316 µM
[27] = second compound 3.16 µM, first compound 1 µM
[28] = second compound 3.16 µM, first compound 3.16 µM
[29] = second compound 3.16 µM, first compound 10 µM
[30] = second compound 10 µM, first compound 0.0316 µM
[31] = second compound 10 µM, first compound 0.1 µM
[32] = second compound 10 µM, first compound 0.316 µM
[33] = second compound 10 µM, first compound 1 µM
[34] = second compound 10 µM, first compound 3.16 µM
[35] = second compound 10 µM, first compound 10 µM
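Note: drug exposure lasted seven days after spheroids formed for three days.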
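Throughout, for viability, T/C: percent of DMSO vehicle control viability which is 100%.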

SMILES: Cn1ncnc1[C@H]1c2n[nH]c(=O)c3cc(F)cc(c23)N[C@@H]1c1ccc(F)cc1
viability, T/C (compound 0.000316 µM): 99.3% [middle of 5 runs]
viability, T/C (compound 0.001 µM): 99.4% [middle of 5 runs]
viability, T/C (compound 0.00316 µM): 93.5% [middle of 5 runs]
viability, T/C (compound 0.01 µM): 89.9% [middle of 5 runs]
viability, T/C (compound 0.0316 µM): 84.1% [middle of 5 runs]
viability, T/C (compound 0.1 µM): 74.5% [middle of 5 runs]
IC50 (curve of compound): > 100 nM

SMILES: CC(C)NCC(C(=O)N1CCN(c2ncnc3c2C(C)CC3O)CC1)c1ccc(Cl)cc1 (stereo unspecified)
viability, T/C (compound 0.0316 µM): 93.8% [middle of 5 runs]
viability, T/C (compound 0.1 µM): 88.5% [middle of 5 runs]
viability, T/C (compound 0.316 µM): 83.5% [middle of 5 runs]
viability, T/C (compound 1 µM): 83.1% [middle of 5 runs]
viability, T/C (compound 3.16 µM): 76.5% [middle of 5 runs]
viability, T/C (compound 10 µM): 51.1% [middle of 5 runs]
IC50 (curve of compound): > 10000 nM and 9740 nM

SMILES: CC(C)n1nc(-c2ccc3oc(N)nc3c2)c2c(N)ncnc21
viability, T/C (compound 0.001 µM): 61.9% [middle of 5 runs]
viability, T/C (compound 0.00316 µM): 48.2% [middle of 5 runs]
viability, T/C (compound 0.01 µM): 35.1% [middle of 5 runs]
viability, T/C (compound 0.0316 µM): 27.3% [middle of 5 runs]
viability, T/C (compound 0.1 µM): 22.6% [middle of 5 runs]
IC50 (curve of compound): 2.46 nM [middle of 5 runs]

SMILES: CC1OCC2(CCN(c3cnc(Sc4ccnc(N)c4Cl)c(N)n3)CC2)C1N (stereo unspecified) + CNCc1ccccc1-c1csc(C(C)Nc2nc(C)nc3cc(OC)c(OC)cc23)c1
IC50 [1]: 296 nM
IC50 [2]: 203 nM
IC50 [3]: 43.5 nM
IC50 [4]: < 31.6 nM
IC50 [5]: < 31.6 nM
viability, T/C [6]: 77%
viability, T/C [7]: 61.6%
viability, T/C [8]: 50%
viability, T/C [9]: 37.5%
viability, T/C [10]: 34.6%
viability, T/C [11]: 26.7%
viability, T/C [12]: 77.4%
viability, T/C [13]: 56.2%
viability, T/C [14]: 44.7%
viability, T/C [15]: 37.4%
viability, T/C [16]: 31.8%
viability, T/C [17]: 24.8%
viability, T/C [18]: 52.5%
viability, T/C [19]: 43.2%
viability, T/C [20]: 37.8%
viability, T/C [21]: 29.3%
viability, T/C [22]: 26%
viability, T/C [23]: 22.2%
viability, T/C [24]: 0.1%
viability, T/C [25]: 0.09%
viability, T/C [26]: 0.07%
viability, T/C [27]: 0.06%
viability, T/C [28]: 0.05%
viability, T/C [29]: 0.33%
viability, T/C [30]: 0.09%
viability, T/C [31]: 0.19%
viability, T/C [32]: 0.08%
viability, T/C [33]: 0.09%
viability, T/C [34]: 0.09%
viability, T/C [35]: 0.15%

SMILES: Cn1nccc1Nc1nccc(-c2cc3c(s2)C(C)(C)N(CCN2CCOCC2)C3=O)n1 + COc1cc2nc(C)nc(NC(C)c3cc(N)cc(C(F)(F)F)c3)c2cc1OC1CCOC1
IC50 [1]: 64.7 nM
IC50 [2]: 54.7 nM
IC50 [3]: 47.2 nM
IC50 [4]: 32.6 nM
IC50 [5]: < 31.6 nM
viability, T/C [6]: 74.8%
viability, T/C [7]: 34.9%
viability, T/C [8]: 14.8%
viability, T/C [9]: 11.1%
viability, T/C [10]: 9.76%
viability, T/C [11]: 9.52%
viability, T/C [12]: 66.2%
viability, T/C [13]: 32.1%
viability, T/C [14]: 16.4%
viability, T/C [15]: 10.4%
viability, T/C [16]: 8.74%
viability, T/C [17]: 9.26%
viability, T/C [18]: 60.1%
viability, T/C [19]: 31.6%
viability, T/C [20]: 15.8%
viability, T/C [21]: 10.9%
viability, T/C [22]: 9.75%
viability, T/C [23]: 10.1%
viability, T/C [24]: 50.7%
viability, T/C [25]: 26.1%
viability, T/C [26]: 14.3%
viability, T/C [27]: 10.2%
viability, T/C [28]: 8.41%
viability, T/C [29]: 10.2%
viability, T/C [30]: 25.4%
viability, T/C [31]: 15.9%
viability, T/C [32]: 10.3%
viability, T/C [33]: 9.05%
viability, T/C [34]: 9.73%
viability, T/C [35]: 7.56%

IC50 (compound alone, run of 09/02/2021): 4.36 µM [middle of 5 runs]
SMILES: COc1cc2nc(C)nc(NC(C)c3cc(N)cc(C(F)(F)F)c3)c2cc1OC1CCOC1 (stereo unspecified)
